Here are results for 1 compound from US20230181719A1, “NGR CONJUGATES AND USES THEREOF” (OSPEDALE SAN RAFFAELE S.R.L., priority 2020, published 2023).

One data set addresses αvβ3 (Homo sapiens, UniProt P05106+P06756). The data set is described as follows: Competitive binding of acetyl-CisoDGRCG/streptavidin-peroxidase to integrin-coated microtiterplates. An excerpt: (§1) To assess whether the isoDGR derivative of S-NGR-TNF and NGR-TNF targeting domains can recognize integrins with similar affinities inventors then analysed the binding of SCisoDGRCGVRY (SEQ ID NO: 17), CisoDGRCGVRY and acetyl-CisoDGRCGVRY to αvβ3, αvβ5, αvβ6 αvβ8 and α5β1 integrins using a competitive binding assay previously described (Curnis et al. 2010). […] As expected […] (SEQ ID NO: 3) and […] […] Considering that human NGR-TNF contains acetylated and non-acetylated forms and that both CNGRC (SEQ ID NO:5) and acetyl-CNGRC can undergo deamidation (Curnis et al. 2010), inventors can conclude that the isoDGR derivative of S-NGR-TNF, if formed, behave in a manner similar to those of the isoDGR derivatives of NGR-TNF in terms of integrin recognition.

The next data set addresses αvβ6 (Homo sapiens, UniProt P06756+P18564). Described as above. Particulars: mean ± SE.
Description: as §1

The next data set has as its target αvβ8 (Homo sapiens, UniProt P06756+P26012). The data set is described as above. As to conditions: mean ± SE.
Description: as §1

The target of a further data set is αvβ5 (Homo sapiens, UniProt P06756+P18084). The description is as above. As to conditions: mean ± SE.
Description: as §1

The target in another data set is α5β1 (Homo sapiens, UniProt P05556+P08648). The data set is described as above. As to conditions: mean ± SE.
Description: as §1

For a further data set, the target named is T1, CD13 (aminopeptidase N) (Homo sapiens, UniProt P15144).
T1 construct: histidine tag
The data set is described as follows: CD13 enzyme kinetics inhibition assay (L-alanine p-nitroanilide substrate). The class given is biochemical. As to conditions: in different experimental conditions. The source says:
FIG. 10. The peptide SCNGRCGVRY (SEQ ID NO: 3) inhibits CD13 enzymatic activity more efficiently than CNGRCGVRY (SEQ ID NO:4) and acetylated-CNGRCGVRY. A) Steady state kinetic analysis of CD13 in the presence of various amounts of L-alanine p-nitroanilide substrate and SCNGRCGVRY (SEQ ID NO: 3), CNGRCGVRY (SEQ ID NO:4), or acetylated-CNGRCGVRY (ac-CNGRCGVRY) (SEQ ID NO:42). A representative plot of 3-4 independent experiments, showing the initial velocity (V0) versus substrate concentration (mean ± SE of four technical replicates), is shown. The assays were performed with recombinant human histidine-tagged CD13 (200-300 ng/ml) in 60 mM potassium phosphate buffer, pH 7.4, at room temperature. The kinetic of p-nitroanilide formation was monitored spectrophotometrically (A405 nm) for 5-10 min. The inhibitory constant (Ki) reported in each plot is the result of the 3-4 independent experiments (mean ± SE). B) Double reciprocal plots of the experiments reported in panel A.
To rule out the possibility that the addition of the serine residue to the N-terminus of NGR-TNF abrogates or reduces its affinity for CD13 inventors performed enzyme kinetics inhibition assays with CD13 (aminopeptidase N) and SCNGRCGVRY (SEQ ID NO: 3), CNGRCGVRY (SEQ ID NO:4) or acetyl-CNGRCGVRY (corresponding to the N-terminal region of human S-NGR-TNF and NGR-TNF).

Data set [1] can be described thus: Peptide deamidation stability upon incubation at 37° C., by mass spectrometry. The class given is physicochemical. Particulars: after 32 h at 37° C. in PBS, pH 7.4. On the procedure: FIG. 11. The peptide SCNGRCGVRY (SEQ ID NO: 3) has a lower propensity to deamidate than CNGRCGVRY (SEQ ID NO:4) in a physiological buffer at […], but not in ammonium bicarbonate buffer at pH 8.5. A and B) MS analysis of SCNGRCGVRY (SEQ ID NO: 3) and CNGRCGVRY (SEQ ID NO:4) after incubation at 37° C. for the indicated time in 50 mM sodium phosphate buffer, pH 7.4 (PBS) or 0.1 M ammonium bicarbonate buffer, pH 8.5 (Ambic). The values +0, + 1, -17 reported in the plot correspond to the difference between the observed and the expected molecular mass of peptides expressed in daltons. MS analysis was performed using the LTQ-Orbitrap mass spectrometer (Thermo Scientific).
To assess whether the addition of the serine residue to CNGRCG (SEQ ID NO:1) might affect its deamidation propensity inventors synthetized the SCNGRCGVRY (SEQ ID NO: 3) and CNGRCGVRY (SEQ ID NO:4) peptides and studied their stability upon incubation at 37° C. in PBS, pH 7.4, by mass spectrometry.
A similar experiment was then performed with peptides in 0.1 M ammonium bicarbonate, pH 8.5, a condition known to force Asn deamidation (Curnis et al. 2006). […] Furthermore, the succinimide-derivative of S-NGR-TNF, when formed, is more prone to hydrolysis.

Positions of bridges follow the written chain, without caps; N, C: chain ends. Residues, ends and D or L forms follow the SMILES beside them.

On to `CC(C)[C@H](NC(=O)CNC(=O)[C@@H]1CSSC[C@H](NC(=O)[C@@H](N)CO)C(=O)N[C@@H](CC(N)=O)C(=O)NCC(=O)N[C@@H](CCCNC(=N)N)C(=O)N1)C(=O)N[C@@H](CCCNC(=N)N)C(=O)N[C@@H](Cc1ccc(O)cc1)C(=O)O` [SCNGRCGVRY, SCNGRCGVRY (SEQ ID NO: 3)] (H-SCNGRCGVRY-OH; disulfide 2-6; N-terminus and C-terminus assumed), for which the Ki at αvβ3 (mean ± SE), on αvβ6, on αvβ8, at αvβ5 and at α5β1 was more than 10 µM throughout. For the same compound, the affinity for integrins result on αvβ3 (αvβ3, αvβ5, αvβ6, αvβ8 and α5β1 (all integrins)) was “no or very low affinity”. On CD13 (aminopeptidase N), the “Ki value for CD13 lower than that of CNGRCGVRY” value was 3-5 fold. The “+1 Da deamidation product (DGR/isoDGR)” value in data set [1] is “observed”. Also, in data set [1], the “-17 Da form still present” value is “not”.
